# Measured values reported in patent publication US10221160B2, “Metalloenzyme inhibitor compounds” (Mycovia Pharmaceuticals, Inc., priority 2012, dated 2019).
# System: C. albicans
# Assay: Minimum Inhibitory Concentration (MIC), CLSI M27-A2
# Type: cell-based
# Settings: Candida albicans, 48 h, about 50% growth reduction, approximately 48 h at 35 °C, read-out: Candida MIC
# Description: A. Minimum Inhibitory Concentration (MIC) Compounds were assessed for their ability to inhibit the growth of common strains of fungus, C. albicans using a standardized procedure (CLSI M27-A2). Stock solutions of the test compounds and standards were prepared in DMSO at 1,600 μg/mL (C. albicans). Eleven, serial, one-half dilutions of compounds were prepared in 96-well plates in RPMI+MOPS. The assay concentration ranges were 8-0.001 μg/mL (C. albicans). Cell suspensions of C. albicans were prepared and added to each well at concentrations of approximately 3.7×10^3 colony-forming-units per milliliter (cfu/mL). All testing was in duplicate. The inoculated plates were incubated for approximately 48 h at 35±1° C. At the completion of incubation the wells of each plate were evaluated visually for the presence of fungal growth. […] For QC purposes C. krusei isolate ATCC 6258 (4.0×10^3 cfu/mL) was included in the VOR assay.
row,SMILES,MIC [µg/mL]
1,"OC(Cn1cnnn1)(c1ccc(F)cc1F)C(F)(F)c1ccc(-c2ccc(C(F)(F)F)cc2)cn1 (centres unmarked) [Example 2, 2-(2,4-Difluorophenyl)-1,1-difluoro-3-(1H-tetrazol-1-yl)-1-(5-(4-(trifluoromethyl)phenyl)pyridin-2-yl) propan-2-ol]",≤ 0.016
2,"OC(Cn1cncn1)(Cn1cncn1)c1ccc(F)cc1F [Fluconazole, reference compound]",0.5
3,"C[C@@H](c1ncncc1F)[C@](O)(Cn1cncn1)c1ccc(F)cc1F [Voriconazole, reference compound]",0.016

# Same assay, conditions: Candida albicans, rating scale, read-out: Candida MIC Rating
row,SMILES,MIC [µg/mL]
1,"OC(Cn1cnnn1)(c1ccc(F)cc1F)C(F)(F)c1ccc(-c2ccc(C(F)(F)F)cc2)cn1 (centres unmarked) [Example 2, 2-(2,4-Difluorophenyl)-1,1-difluoro-3-(1H-tetrazol-1-yl)-1-(5-(4-(trifluoromethyl)phenyl)pyridin-2-yl) propan-2-ol]",< 0.5
2,"OC(Cn1cnnn1)(c1ccc(F)cc1F)C(F)(F)c1ccc(-c2ccc(OC(F)F)cc2)cn1 (centres unmarked) [Example 38, 1-(5-(4-(Difluoromethoxy)phenyl)pyridin-2-yl)-2-(2,4-difluorophenyl)-1,1-difluoro-3-(1H-tetrazol-1-yl)propan-2-ol]",< 0.5
3,OC(Cn1cnnn1)(c1ccc(F)cc1F)C(F)(F)c1ccc(-c2ccc(SC(F)F)cc2)cn1 (centres unmarked) [Example 40],< 0.5
4,"OC(Cn1cnnn1)(c1ccc(F)cc1F)C(F)(F)c1ccc(-c2ccc(CC(F)(F)F)cc2)cn1 (centres unmarked) [Example 41, 2-(2,4-Difluorophenyl)-1,1-difluoro-3-(1H-tetrazol-1-yl)-1-(5-(4-(2,2,2-trifluoroethyl)phenyl)pyridin-2-yl)propan-2-ol]",< 0.5
5,"CNC(=O)c1ccc(-c2ccc(C(F)(F)C(O)(Cn3cnnn3)c3ccc(F)cc3F)nc2)cc1 (centres unmarked) [Example 42, 4-(6-(2-(2,4-Difluorophenyl)-1,1-difluoro-2-hydroxy-3-(1H-tetrazol-1-yl)propyl)pyridin-3-yl)-N-methylbenzamide]",< 0.5
6,"CCOC(=O)C(F)(F)Oc1ccc(-c2ccc(C(F)(F)C(O)(Cn3cnnn3)c3ccc(F)cc3F)nc2)cc1 (centres unmarked) [Example 43, Ethyl 2-(4-(6-(2-(2,4-difluorophenyl)-1,1-difluoro-2-hydroxy-3-(1H-tetrazol-1-yl)propyl)pyridin-3-yl)phenoxy)-2,2-difluoroacetate]",< 0.5
7,"OC(Cn1cnnn1)(c1ccc(F)cc1F)C(F)(F)c1ccc(-c2ccc(OCCC(F)(F)F)cc2)cn1 (centres unmarked) [Example 44, 2-(2,4-Difluorophenyl)-1,1-difluoro-3-(1H-tetrazol-1-yl)-1-(5-(4-(3,3,3-trifluoropropoxy)phenyl)pyridin-2-yl)propan-2-ol]",< 0.5
8,"OC(Cn1cnnn1)(c1ccc(F)cc1F)C(F)(F)c1ccc(-c2ccc(SCC(F)(F)F)cc2)cn1 (centres unmarked) [Example 45, 2-(2,4-Difluorophenyl)-1,1-difluoro-3-(1H-tetrazol-1-yl)-1-(5-(4-((2,2,2-trifluoroethyl)thio)phenyl)pyridin-2-yl)propan-2-ol]",< 0.5
9,"CC(F)(c1ccc(-c2ccc(OC(F)(F)F)cc2)cn1)C(O)(Cn1cnnn1)c1ccc(F)cc1F (centres unmarked) [Example 46, 2-(2,4-Difluorophenyl)-3-fluoro-1-(1H-tetrazol-1-yl)-3-(5-(4-(trifluoromethoxy)phenyl)-pyridin-2-yl)butan-2-ol]",0.5 to 1.5
10,"CC(F)(c1ccc(-c2ccc(F)cc2)cn1)C(O)(Cn1ncnn1)c1ccc(F)cc1F (centres unmarked) [Example 48, 2-(2,4-Difluorophenyl)-3-fluoro-3-(5-(4-fluorophenyl)pyridin-2-yl)-1-(2H-tetrazol-2-yl)butan-2-ol]",1.5 to 4

# Same assay, conditions: rating scale
row,SMILES,Candida MIC Rating
1,"OC(Cn1cnnn1)(c1ccc(F)cc1F)C(F)(F)c1ccc(-c2ccc(OCC(F)(F)F)cc2)cn1 (centres unmarked) [Example 39, 2-(2,4-Difluorophenyl)-1,1-difluoro-3-(1H-tetrazol-1-yl)-1-(5-(4-(2,2,2-trifluoroethoxy)phenyl)pyridin-2-yl)propan-2-ol]",C (>1.5-4)
2,"CC(F)(c1ccc(-c2ccc(OC(F)(F)F)cc2)cn1)C(O)(Cn1cnnn1)c1ccc(F)cc1F (centres unmarked) [Example 47, 2-(2,4-Difluorophenyl)-3-fluoro-1-(1H-tetrazol-1-yl)-3-(5-(4-(trifluoromethoxy)phenyl)-pyridin-2-yl)butan-2-ol]",A (≤0.5)
3,"CC(F)(c1ccc(-c2ccc(F)cc2)cn1)C(O)(Cn1cnnn1)c1ccc(F)cc1F (centres unmarked) [Example 51, 2-(2,4-Difluorophenyl)-3-fluoro-3-(5-(4-fluorophenyl)pyridin-2-yl)-1-(1H-tetrazol-1-yl)butan-2-ol]",A (≤0.5)
4,"CC(F)(c1ccc(-c2ccc(C(F)(F)F)cc2)cn1)C(O)(Cn1cnnn1)c1ccc(F)cc1F (centres unmarked) [Example 52, 2-(2,4-Difluorophenyl)-3-fluoro-1-(1H-tetrazol-1-yl)-3-(5-(4-(trifluoromethyl)phenyl)pyridin-2-yl)butan-2-ol]",C (>1.5-4)
5,"CC(F)(c1ccc(-c2ccc(C(F)(F)F)cc2)cn1)C(O)(Cn1cnnn1)c1ccc(F)cc1F (centres unmarked) [Example 53, 2-(2,4-Difluorophenyl)-3-fluoro-1-(1H-tetrazol-1-yl)-3-(5-(4-(trifluoromethyl)phenyl)pyridin-2-yl)butan-2-ol]",B (>0.5-1.5)
6,"CC(F)(c1ccc(-c2ccc(Cl)cc2)cn1)C(O)(Cn1cnnn1)c1ccc(F)cc1F (centres unmarked) [Example 54, 3-(5-(4-Chlorophenyl)pyridin-2-yl)-2-(2,4-difluorophenyl)-3-fluoro-1-(1H-tetrazol-1-yl)butan-2-ol]",C (>1.5-4)
7,"CC(F)(c1ccc(-c2ccc(Cl)cc2)cn1)C(O)(Cn1cnnn1)c1ccc(F)cc1F (centres unmarked) [Example 55, 3-(5-(4-Chlorophenyl)pyridin-2-yl)-2-(2,4-difluorophenyl)-3-fluoro-1-(1H-tetrazol-1-yl)butan-2-ol]",A (≤0.5)
8,"CC(F)(c1ccc(-c2ccc(OCC(F)(F)F)cc2)cn1)C(O)(Cn1cnnn1)c1ccc(F)cc1F (centres unmarked) [Example 56, 2-(2,4-Difluorophenyl)-3-fluoro-1-(1H-tetrazol-1-yl)-3-(5-(4-(2,2,2-trifluoroethoxy)phenyl)pyridin-2-yl)butan-2-ol]",C (>1.5-4)
9,"CC(F)(c1ccc(-c2ccc(OCC(F)(F)F)cc2)cn1)C(O)(Cn1cnnn1)c1ccc(F)cc1F (centres unmarked) [Example 57, 2-(2,4-Difluorophenyl)-3-fluoro-1-(1H-tetrazol-1-yl)-3-(5-(4-(2,2,2-trifluoroethoxy)phenyl)pyridin-2-yl)butan-2-ol]",A (≤0.5)

# Molecular target: CYP3A4 (Homo sapiens (Human), UniProt P08684)
# Assay: Inhibition of liver cytochrome P450 enzymes (pooled human liver microsomes)
# Type: in vitro ADME
# Settings: not given
# Description: A. […] Solutions of each test compound were separately prepared at concentrations of 20000, 6000, 2000, 600, 200, and 60 μM by serial dilution with DMSO:MeCN (50:50 v/v). The individual test compound solutions were then diluted 20-fold with DMSO:MeCN:deionized water (5:5:180 v/v/v) to concentrations of 1000, 300, 100, 30, 10, and 3 μM. […] The mixed inhibitor solutions were then diluted 20-fold with DMSO:MeCN:deionized water (5:5:180 v/v/v) to concentrations of 300, 100, 30, 10, 3, 1, 0.3, and 0.1 μM. The percent of organic solvent attributable to the test compound or inhibitor mixture in the final reaction mixture was 2% v/v. Pooled human liver microsome suspension (20 mg/mL) was diluted with phosphate buffer to obtain a 5 mg/mL suspension. A solution of NADPH was prepared in phosphate buffer at a concentration of 5 mM. Separate stock solutions of each substrate were prepared in DMSO:MeCN (50:50 v/v), mixed, and diluted in phosphate buffer to obtain a single solution containing each substrate at five times its experimentally determined Km concentration. […] A portion of the supernatant was analyzed by gradient reverse-phase HPLC with detection by electrospray ionization triple quadrupole mass spectrometry in the positive ion mode. Data was fitted to sigmoid dose-response curves and the inhibitory potency of each test compound was determined as its IC50 value.
# Chain of CYP3A4 (P08684 whole entry): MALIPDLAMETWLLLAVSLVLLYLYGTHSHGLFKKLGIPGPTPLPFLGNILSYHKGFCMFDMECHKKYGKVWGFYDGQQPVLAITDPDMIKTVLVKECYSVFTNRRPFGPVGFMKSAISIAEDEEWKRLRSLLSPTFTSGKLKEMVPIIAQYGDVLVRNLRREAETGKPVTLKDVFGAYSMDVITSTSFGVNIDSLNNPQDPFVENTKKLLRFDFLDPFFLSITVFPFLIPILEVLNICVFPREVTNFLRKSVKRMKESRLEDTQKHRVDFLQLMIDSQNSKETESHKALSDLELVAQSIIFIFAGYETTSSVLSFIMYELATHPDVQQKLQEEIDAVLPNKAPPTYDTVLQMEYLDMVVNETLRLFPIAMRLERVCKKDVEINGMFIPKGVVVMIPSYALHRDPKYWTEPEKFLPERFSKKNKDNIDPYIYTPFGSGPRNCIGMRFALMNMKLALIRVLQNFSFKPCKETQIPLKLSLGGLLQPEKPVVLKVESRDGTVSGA
row,SMILES,IC50 [µM]
1,"OC(Cn1cnnn1)(c1ccc(F)cc1F)C(F)(F)c1ccc(-c2ccc(C(F)(F)F)cc2)cn1 (centres unmarked) [Example 2, 2-(2,4-Difluorophenyl)-1,1-difluoro-3-(1H-tetrazol-1-yl)-1-(5-(4-(trifluoromethyl)phenyl)pyridin-2-yl) propan-2-ol]",> 60
